Active and inactive are the calls of the source.
Tests used:
[1] = biological target: Sphingosine 1-phosphate receptor 2 (Homo sapiens, UniProt O95136); test: Dose Response Cell Based Assay for Agonists of the S1P2 Receptor. [Related pubchem assays: 729, 736, 843 ]; format: functional
[2] = cytotoxicity toward NIH3T3 fibroblasts, dose response, counter-screen, cell-based, ATP luminescence, mouse fibroblasts (AID 2010); format: functional;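 further: cells exposed to compound for about 90 hours before reading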
cells [3] = test: cells
Caspase-6 = Caspase-6 (Homo sapiens, UniProt P55212); test: human caspase-6 inhibitors, dose response, biochemical, VEID-R110 fluorescence, cherry-pick (AID 720632)
[4] = inhibitors of intracellular T. cruzi replication, confirmation, NIH3T3 host cells, beta-gal luminescence (AID 2044); format: functional, cell-based;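 further: intracellular parasites grown in NIH/3T3 mouse fibroblasts as host cells; luminescent beta-galactosidase reporter signal from transgenic T. cruzi replicating inside host cells; inhibitors lower the luminescence signal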
[5] = HEp-2 cell cytotoxicity, dose response, cytotoxicity control for RSV inhibitor project, HTS (AID 2410); format: functional; conditions: human respiratory syncytial virus
[6] = biological target: T1, Oxysterols receptor LXR-beta (Homo sapiens, UniProt P55055); format: functional, cell-based;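 further: Cell-based luminescence dose-response assay of agonist activity at LXR, run as a confirmatory counterscreen to a daf-12 agonist screen; HEK293 cells with Gal4-LXR fusion and GAL4-driven luciferase reporter; agonist potency from rising luciferase signal of a Gal4-LXR reporter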
T1 sequence (P55055 whole entry): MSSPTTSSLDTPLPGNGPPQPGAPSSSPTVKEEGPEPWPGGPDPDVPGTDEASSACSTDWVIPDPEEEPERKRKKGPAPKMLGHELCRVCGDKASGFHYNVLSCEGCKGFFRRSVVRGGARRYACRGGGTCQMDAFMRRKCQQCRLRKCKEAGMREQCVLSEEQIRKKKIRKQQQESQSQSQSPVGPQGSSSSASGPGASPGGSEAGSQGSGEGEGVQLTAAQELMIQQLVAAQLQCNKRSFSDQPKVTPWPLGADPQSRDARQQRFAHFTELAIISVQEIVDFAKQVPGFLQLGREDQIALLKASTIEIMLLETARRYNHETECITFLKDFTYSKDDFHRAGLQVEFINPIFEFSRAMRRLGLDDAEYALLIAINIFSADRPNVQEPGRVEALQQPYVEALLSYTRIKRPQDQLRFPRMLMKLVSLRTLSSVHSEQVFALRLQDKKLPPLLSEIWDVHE

cells [7] = test: cells; remark: listed apart in the source
[8] = biological target: Muscarinic acetylcholine receptor M5 (Homo sapiens, UniProt P08912); test: M5 receptor positive allosteric modulators, dose response, cell-based, concentration-response curve (AID 651878); format: functional
[9] = P. falciparum Dd2 growth inhibitors, dose response, SYBR Green, cherry-picked samples (AID 1159567); format: functional, cell-based
[10] = HepG2 cell cytotoxicity, dose response, cytotoxicity control, cherry-picked samples (AID 1159577); format: functional, cell-based
[11] = inhibitors of PGC1a acetylation in cells, dose response, cell-based, cherry-picked samples (AID 720514); format: functional;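 further: potency may reflect raised or lowered acetylation signal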
[12] = biological target: Voltage-gated inwardly rectifying potassium channel KCNH2 (Homo sapiens, UniProt Q12809); test: hERG protection from proarrhythmic block, potency, dose response, cell-based, thallium flux (AID 2121); format: ADME
Streptokinase A = biological target: T2, Streptokinase A (Streptococcus pyogenes serotype M1, UniProt P10520); test: S. pyogenes streptokinase expression inhibitors, potency, dose response, plasminogen activation absorbance, OD405 (AID 1914); format: functional, Streptococcus pyogenes M1 GAS;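 further: secreted streptokinase activity via plasminogen activation per viability signal from cell pellet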
T2 sequence (P10520 whole entry): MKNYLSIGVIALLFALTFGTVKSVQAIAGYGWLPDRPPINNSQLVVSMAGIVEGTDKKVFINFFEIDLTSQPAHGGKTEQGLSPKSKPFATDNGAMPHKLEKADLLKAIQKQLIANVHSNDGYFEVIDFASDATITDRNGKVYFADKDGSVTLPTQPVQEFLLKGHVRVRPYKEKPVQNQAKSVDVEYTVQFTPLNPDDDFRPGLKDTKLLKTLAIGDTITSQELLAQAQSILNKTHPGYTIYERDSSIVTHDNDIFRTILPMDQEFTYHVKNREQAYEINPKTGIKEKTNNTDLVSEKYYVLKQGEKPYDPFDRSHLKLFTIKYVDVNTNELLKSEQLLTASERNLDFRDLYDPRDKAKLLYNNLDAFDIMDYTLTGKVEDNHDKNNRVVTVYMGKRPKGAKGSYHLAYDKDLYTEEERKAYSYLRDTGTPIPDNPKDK

[13] = biological target: G-protein coupled receptor 183 (Homo sapiens, UniProt P32249); test: SAR confirmation of small molecule antagonists of the EBI2 receptor via a luminescent beta-arrestin assa.; format: functional
Vero [14] = test: host cell cytotoxicity of antiviral hits, dose response, cytotoxicity control for West Nile virus antiviral project, secondary assay (AID 1650); format: functional; conditions: Chlorocebus sabaeus
Vero [15] = test: West Nile virus antiviral activity, cell-based, CPE readout (AID 1621); format: functional; conditions: Chlorocebus sabaeus

Voltage-gated inwardly rectifying potassium channel KCNH2, sequence (Q12809 whole entry): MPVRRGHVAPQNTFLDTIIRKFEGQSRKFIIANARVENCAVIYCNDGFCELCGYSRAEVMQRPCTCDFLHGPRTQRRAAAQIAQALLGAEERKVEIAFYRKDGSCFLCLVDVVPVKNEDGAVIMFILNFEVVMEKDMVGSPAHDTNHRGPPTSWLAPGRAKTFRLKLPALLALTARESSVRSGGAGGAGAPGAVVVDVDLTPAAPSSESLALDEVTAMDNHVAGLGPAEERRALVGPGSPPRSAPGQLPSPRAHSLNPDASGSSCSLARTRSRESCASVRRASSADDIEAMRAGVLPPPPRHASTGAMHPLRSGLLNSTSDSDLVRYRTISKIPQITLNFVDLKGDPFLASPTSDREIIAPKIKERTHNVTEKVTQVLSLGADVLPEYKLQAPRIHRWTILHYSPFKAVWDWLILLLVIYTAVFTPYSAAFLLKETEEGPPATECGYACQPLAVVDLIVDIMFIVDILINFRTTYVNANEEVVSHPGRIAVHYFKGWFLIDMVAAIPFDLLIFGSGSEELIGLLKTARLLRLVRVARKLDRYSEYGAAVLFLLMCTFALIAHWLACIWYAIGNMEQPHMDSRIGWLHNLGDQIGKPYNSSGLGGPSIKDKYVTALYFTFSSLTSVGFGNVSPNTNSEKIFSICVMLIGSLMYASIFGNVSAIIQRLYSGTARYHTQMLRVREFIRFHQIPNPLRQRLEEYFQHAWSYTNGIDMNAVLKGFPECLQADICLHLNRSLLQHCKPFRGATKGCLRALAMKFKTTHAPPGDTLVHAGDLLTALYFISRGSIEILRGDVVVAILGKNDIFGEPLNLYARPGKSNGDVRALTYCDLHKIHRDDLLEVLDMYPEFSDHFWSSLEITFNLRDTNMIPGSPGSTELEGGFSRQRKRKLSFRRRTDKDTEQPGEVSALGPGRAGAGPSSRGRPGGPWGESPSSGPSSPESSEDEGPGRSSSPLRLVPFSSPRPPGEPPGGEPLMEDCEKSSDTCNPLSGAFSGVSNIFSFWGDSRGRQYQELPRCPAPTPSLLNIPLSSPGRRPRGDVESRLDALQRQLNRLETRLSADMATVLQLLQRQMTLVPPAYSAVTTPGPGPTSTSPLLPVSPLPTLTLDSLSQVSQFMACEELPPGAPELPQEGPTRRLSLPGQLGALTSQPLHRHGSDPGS
G-protein coupled receptor 183, sequence (P32249 whole entry): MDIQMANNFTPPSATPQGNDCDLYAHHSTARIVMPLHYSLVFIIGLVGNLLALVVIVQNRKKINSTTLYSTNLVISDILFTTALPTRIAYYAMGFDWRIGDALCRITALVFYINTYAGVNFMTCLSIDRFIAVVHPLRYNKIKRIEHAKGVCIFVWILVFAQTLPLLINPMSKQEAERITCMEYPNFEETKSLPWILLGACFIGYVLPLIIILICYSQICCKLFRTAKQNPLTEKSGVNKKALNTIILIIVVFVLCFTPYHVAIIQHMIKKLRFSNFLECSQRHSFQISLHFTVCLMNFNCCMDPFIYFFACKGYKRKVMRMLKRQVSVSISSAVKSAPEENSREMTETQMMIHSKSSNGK
Sphingosine 1-phosphate receptor 2, sequence (O95136 whole entry): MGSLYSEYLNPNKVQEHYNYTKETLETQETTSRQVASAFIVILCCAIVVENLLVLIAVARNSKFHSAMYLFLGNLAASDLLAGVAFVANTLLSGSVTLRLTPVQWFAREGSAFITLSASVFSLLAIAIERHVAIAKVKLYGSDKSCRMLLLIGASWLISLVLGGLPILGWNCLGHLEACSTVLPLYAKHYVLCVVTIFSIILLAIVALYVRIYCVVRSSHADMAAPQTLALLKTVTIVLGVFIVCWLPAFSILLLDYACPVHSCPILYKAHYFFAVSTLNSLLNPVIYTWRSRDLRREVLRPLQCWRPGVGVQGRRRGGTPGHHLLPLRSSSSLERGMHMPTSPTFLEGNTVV
Muscarinic acetylcholine receptor M5, sequence (P08912 whole entry): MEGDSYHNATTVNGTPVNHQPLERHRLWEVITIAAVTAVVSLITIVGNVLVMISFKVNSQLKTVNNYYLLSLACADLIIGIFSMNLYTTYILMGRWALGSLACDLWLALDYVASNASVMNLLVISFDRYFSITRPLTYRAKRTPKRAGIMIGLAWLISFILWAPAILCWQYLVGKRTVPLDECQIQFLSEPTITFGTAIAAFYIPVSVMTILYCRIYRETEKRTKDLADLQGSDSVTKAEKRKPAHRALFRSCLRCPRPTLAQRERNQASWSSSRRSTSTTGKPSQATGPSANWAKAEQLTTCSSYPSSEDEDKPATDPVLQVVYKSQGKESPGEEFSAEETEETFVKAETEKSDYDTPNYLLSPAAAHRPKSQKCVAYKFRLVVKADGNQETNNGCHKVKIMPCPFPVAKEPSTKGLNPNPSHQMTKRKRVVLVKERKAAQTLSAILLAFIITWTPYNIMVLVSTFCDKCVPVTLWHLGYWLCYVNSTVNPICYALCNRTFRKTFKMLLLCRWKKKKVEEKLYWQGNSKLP
Caspase-6, sequence (P55212 24-179 limits assumed): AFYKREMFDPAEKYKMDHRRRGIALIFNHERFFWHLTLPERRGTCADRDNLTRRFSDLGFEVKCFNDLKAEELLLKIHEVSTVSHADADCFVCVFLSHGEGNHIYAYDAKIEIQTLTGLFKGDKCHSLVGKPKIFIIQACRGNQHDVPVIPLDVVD
Caspase-6, sequence (P55212 194-293 limits assumed): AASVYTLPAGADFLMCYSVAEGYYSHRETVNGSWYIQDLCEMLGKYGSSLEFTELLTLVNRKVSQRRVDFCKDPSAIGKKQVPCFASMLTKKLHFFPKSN

Cc1ccc(C2CC(=O)c3cnc(N4CCc5ccccc5C4)nc3C2)cc1 (configuration not stated)
EC50 [1]: > 50 µM (not active)

Cn1ccs/c1=N\C(=O)c1ccc([N+](=O)[O-])o1
EC50 [2]: 24 µM (active)
EC50 (cells [3]): 0.03 µM (active)
AC50 (Caspase-6): 6.3 µM (active)
EC50 [4]: < 0.1 µM (active)

COc1ccccc1Nc1nc(-c2cccs2)cs1
CC50 [5]: 47.2 µM (active)
EC50 [6]: > 67.5 µM (inactive)
EC50 (cells [7]): > 67.5 µM (inactive)

Cc1ccc(OCCN2C(=O)C(=O)c3cc(OC(F)(F)F)ccc32)cc1
EC50 [8]: 0.52 µM (active)

OC[C@H]1[C@H](c2ccc(C#CC3CCCC3)cc2)[C@@H]2CN(CCC(F)(F)F)CCCCN12
AC50 [9]: 0.848 µM (active)
AC50 [10]: 10.4 µM (active)
AC50 [11]: 16.8 µM (active)

CCOC(=O)c1sc2nc(Cc3ccc(Cl)cc3)[nH]c(=S)c2c1C
EC50 [12]: 0.92 µM (active)
EC50 (Streptokinase A): > 150 µM (not active)

CC(C)(C)c1ccc(CN2CCN(C(=O)/C=C/c3ccc(Br)cc3)CC2)cc1
IC50 [13]: 0.00936 µM (active)

CCN(CC)S(=O)(=O)c1ccc2nc(O)c3ccccc3c2c1
CC50 (Vero [14]): 38.9 µM (active)
IC50 (Vero [15]): 45.5 µM (active)

Source: ChEMBL document CHEMBL1201862, “PubChem BioAssay data set” (2004)
